Consider one compound from paper PMC12320245 (International Journal of Biological Sciences, 2025).

“Also recorded” adds a separate entry of the source.

Assay [1] has as its system PDE4 in primary hippocampal neurons. Nature of the assay: Scratch injury: PDE4 expression (immunocytochemistry and Western blot). Format: cell-based, rat. The note with it: scratch-AMX vs scratch-vehicle, 24 hours after scratch. As for the experimental part:
Primary hippocampal neurons were obtained from embryonic day 18 (E18) Sprague-Dawley rat embryos. Pregnant rats were anesthetized using 2-3% isoflurane in a gas mixture of 70% nitrous oxide and 30% oxygen. Following euthanasia, the hippocampi were carefully dissected, minced, and enzymatically dissociated using TrypLE Express (Gibco, NY, USA) for 10 minutes at 37°C. The tissue was further mechanically dissociated using fire-polished glass pipettes, and the resulting cell suspension was filtered through a 70 μm cell strainer to remove debris. Neurons were seeded at a density of 3 × 10^5 cells per well in 24-well plates pre-coated with poly-L-lysine (Sigma-Aldrich, Saint Louis, MO, USA). Cells were maintained in neurobasal medium supplemented with B-27 (Thermo Fisher Scientific, Waltham, MA, USA), GlutaMAX (Gibco), and penicillin-streptomycin. […]
A scratch injury model was used to mimic TBI in vitro. […] After the treatment period, neuronal damage and recovery were assessed using appropriate evaluation methods.
Twenty-four hours after the scratch injury, cells were lysed using RIPA buffer (IBS-BR002, iNtRON, Republic of Korea) supplemented with protease and phosphatase inhibitors (Sigma, USA). […] Protein detection was performed using a chemiluminescence bioimaging device (Amersham Imager 680, Cytiva, MA, USA), and the results were analyzed to determine protein expression levels. […]

The test system of assay [2] is ipsilateral hippocampus of TBI rats. In words: Controlled cortical impact TBI: IgG extravasation (BBB integrity). The class given is in vivo, rat. The note with it: 24 hours and 2 weeks post-TBI. As for the experimental part:
This study used male Sprague-Dawley rats weighing 300-350 g and aged 8 weeks, obtained from DBL Co. (Chungcheongbuk-do, Republic of Korea). The rats were housed in a controlled environment with a temperature of 20 ± 2 °C, a relative humidity of 55 ± 5%, and a 12-hour light/dark cycle. They were provided ad libitum access to food and water. To minimize stress associated with transportation, animals underwent a one-week acclimatization period before the start of the experiments. All experimental procedures were conducted in compliance with the guidelines of the National Institutes of Health for the care and use of laboratory animals and were approved by the Hallym University Institutional Animal Care and Use Committee (protocol # Hallym 2022-23, approved on July 15, 2022). This manuscript follows the principles outlined in the Animal research: reporting in vivo experiments (ARRIVE) guidelines.
A controlled cortical impact (CCI) model was used to induce TBI in rats. Animals were anesthetized with 1-1.5% isoflurane in a 30:70 oxygen-to-nitrous oxide mixture and securely positioned in a stereotaxic frame. A 3 mm craniotomy was performed using a portable drill at a site 2.8 mm lateral to the midline and 3.0 mm posterior to Bregma. […]

Turning to `CC(C)c1ccc2oc3nc(N)c(C(=O)O)cc3c(=O)c2c1` [AMX, amlexanox], in assay [1], the PDE4 levels result is on record as “significantly reduced”. In addition, in assay [2], the “IgG extravasation (BBB integrity)” value is on record as “reduces this leakage; also recorded: significantly reduced IgG extravasation”.
